Measured values taken from patent publication US20110190336A1, “AZABENZIMIDAZOLONES” (CARA THERAPEUTICS, INC., priority 2008, published 2011).

Biological target: T1, human DP2 receptor (Homo sapiens, UniProt Q9Y5Y4)
T1 construct: expressed in transfected cells; host or cells: CHO-K1 FLP-In (Invitrogen, catalog no. R758-07), stably transfected
T1 sequence (Q9Y5Y4 1-395): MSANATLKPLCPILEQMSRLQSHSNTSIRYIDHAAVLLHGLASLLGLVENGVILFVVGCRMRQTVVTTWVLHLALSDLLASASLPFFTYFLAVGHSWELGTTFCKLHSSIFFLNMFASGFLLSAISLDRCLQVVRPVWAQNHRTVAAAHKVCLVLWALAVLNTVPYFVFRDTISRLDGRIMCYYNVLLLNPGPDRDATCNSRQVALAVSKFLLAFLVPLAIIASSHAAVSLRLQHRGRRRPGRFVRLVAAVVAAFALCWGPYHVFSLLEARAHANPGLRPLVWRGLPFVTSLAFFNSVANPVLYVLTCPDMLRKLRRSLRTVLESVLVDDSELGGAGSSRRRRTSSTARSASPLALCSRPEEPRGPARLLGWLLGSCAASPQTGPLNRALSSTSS
Test: Prostaglandin D2 binding inhibition assay (scintillation proximity assay, 3H PGD2, membranes of transfected CHO cells)
Settings: SPA, 5.5 nM 3H PGD2, CHO-K1 FLP-In human DP2 membranes; upper limit determinable 30 μM; read-out: IC50 ranges for inhibition of PGD2 binding to human DP2
Experimental: The ability of compounds to inhibit binding of prostaglandin D2 (PGD2) to the human DP2 receptor was measured using a scintillation proximity assay (SPA). Chinese Hamster Ovary FLP-In cell lines (CHO-K1 FLP-In, Invitrogen, catalog no. R758-07) were stably transfected with the human DP2 gene (Genebank: AY507142). Cell lines were grown in suspension in EX-CELL 302 CHO Serum-free medium (Sigma, catalog no. 14324C) supplemented with 1% Fetal Bovine Serum (Invitrogen no. 10099-141), 2 mM L-glutamine (Invitrogen, catalog no. 25030-081) and 0.5 mg/ml Hygromycin B (Invitrogen, catalog no. 10687-010). Cells were collected by centrifugation in a Beckman Coulter Allegra X-12R centrifuge at 150×g for 5 minutes at room temperature.
Membranes from transfected cells were isolated for binding assays. Cell pellets containing approximately 2×10^9 cells were resuspended in 35 ml of cold membrane homogenization buffer (10 mM Tris (Sigma, catalog no. T2663), 1 mM EDTA (Fluka BioChemika no. 03690), and 70 μl of protease inhibitor cocktail (Sigma, catalog no. P8340)). Cells were homogenized with 30 strokes of a dounce homogenizer (Kontes, catalog no. 885303-0040), and the solution centrifuged at 200×g for 10 minutes. The supernatant was transferred to a 50 ml Oakridge tube (Beckman, catalog no. 357000) and centrifuged in a Beckman Coulter Avanti J-26×PI centrifuge with a JA30.50 rotor at 81,000×g for 1 hour at 15° C. The pellet was resuspended in membrane storage buffer (50 mM Tris (Sigma, catalog no. T2663), 2.5 mM EDTA (Fluka BioChemika no. 03690), 5 mM magnesium chloride (Sigma, catalog no. M1028), 100 mg/ml sucrose (Sigma, catalog no. 50389) and a 1:500 dilution of protease inhibitor cocktail (Sigma, catalog no. P8340)) and the total protein was quantitated using a BCA protein measurement kit (Pierce, catalog no. 23225). Aliquots were frozen at −80° C. until used. Compounds were tested for their ability to inhibit PGD2 binding to the purified membranes. 5 μg of the purified membranes, 0.25 mg of wheat germ agglutinin PVT SPA beads (GE Healthcare, catalog no. RPNQ0060) and 5.5 nM of ^3H PGD2 (PerkinElmer, catalog no. NET-616) were mixed in assay buffer ((50 mM Tris (Sigma, catalog no. T2663), 10 mM magnesium chloride (Sigma, catalog no. M1028), 100 mM sodium chloride (Sigma, catalog no. S6546) and 0.1% bovine serum albumin (Sigma, catalog no. A2153)). Using a Multidrop bulk dispenser, 75 μl of the assay mixture was dispensed in Optiplates (PerkinElmer, catalog no. 6007299) containing the compounds to be tested. After a 60 minute incubation period at room temperature, the plates were read on a PerkinElmer Topcount NXT HTS, and individual wells were quantitated as counts per minute (CPM). Data were expressed as a percent of the difference between the maximum and minimum responses. IC50 values (the concentration of compound producing 50% of the maximal response) were determined using a two-parameter non-linear regression algorithm analyzed using CambridgeSoft Bioassay software. Table 2 gives the range of IC50 values for claimed compounds in the binding assay.

IC50 [µM]	Structure (SMILES)
1 to 10	O=C(O)Cn1c(=O)n(C2CCN(S(=O)(=O)c3ccc(F)cc3)CC2)c2ncccc21 [Compound 55, 2-(3-(1-(4-fluorophenylsulfonyl)piperidin-4-yl)-2-oxo-2,3-dihydro-1H-imidazo[4,5-b]pyridin-1-yl)acetic acid]
< 1	O=C(O)Cn1c(=O)n(C2CCN(S(=O)(=O)c3ccccc3Cl)CC2)c2ncccc21 [Compound 58, 2-(3-(1-(2-chlorophenylsulfonyl)piperidin-4-yl)-2-oxo-2,3-dihydro-1H-imidazo[4,5-b]pyridin-1-yl)acetic acid]
1 to 10	O=C(O)Cn1c(=O)n(C2CCN(S(=O)(=O)c3ccc4ccccc4c3)CC2)c2ncccc21 [Compound 59, 2-(3-(1-(naphthalen-2-ylsulfonyl)piperidin-4-yl)-2-oxo-2,3-dihydro-1H-imidazo[4,5-b]pyridin-1-yl)acetic acid]
1 to 10	N#Cc1ccc(S(=O)(=O)N2CCC(n3c(=O)n(CC(=O)O)c4cccnc43)CC2)cc1 [Compound 61, 2-(3-(1-(4-cyanophenylsulfonyl)piperidin-4-yl)-2-oxo-2,3-dihydro-1H-imidazo[4,5-b]pyridin-1-yl)acetic acid]
1 to 10	Cc1cccc(CS(=O)(=O)N2CCC(n3c(=O)n(CC(=O)O)c4cccnc43)CC2)c1 [Compound 62, 2-(3-(1-(3-methylbenzylsulfonyl)piperidin-4-yl)-2-oxo-2,3-dihydro-1H-imidazo[4,5-b]pyridin-1-yl)acetic acid]
1 to 10	N#Cc1cccc(S(=O)(=O)N2CCC(n3c(=O)n(CC(=O)O)c4cccnc43)CC2)c1 [Compound 69, 2-(3-(1-(3-cyanophenylsuIfonyl)piperidin-4-yl)-2-oxo-2,3-dihydro-1H-imidazo[4,5-b]pyridin-1-yl)acetic acid]
10 to 30	CC(C)Oc1ccc(S(=O)(=O)N2CCC(n3c(=O)n(CC(=O)O)c4cc(F)cnc43)CC2)cc1 [Compound 73, 2-(6-fluoro-3-(1-(4-isopropoxyphenyl-sulfonyl)piperidin-4-yl)-2-oxo-2,3-dihydro-1H-imidazo[4,5-b]pyridin-1-yl)acetic acid]
> 30	CC(C)Oc1ccc(S(=O)(=O)N2CCC(n3c(=O)n(CC(=O)O)c4cccnc43)CC2)cc1 [Compound 75, 2-(3-(1-(4-isopropoxyphenylsulfonyl)piperidin-4-yl)-2-oxo-2,3-dihydro-1H-imidazo[4,5-b]pyridin-1-yl)acetic acid]
1 to 10	Cc1cc(S(=O)(=O)N2CCC(n3c(=O)n(CC(=O)O)c4cccnc43)CC2)c(C)s1 [Compound 76, 2-(3-(1-(2,5-dimethylthiophen-3-ylsulfonyl)piperidin-4-yl)-2-oxo-2,3-dihydro-1H-imidazo[4,5-b]pyridin-1-yl)acetic acid]

The remaining lines, values behind:

Structure (SMILES)	IC50 [µM]
Cc1noc(C)c1S(=O)(=O)N1CCC(n2c(=O)n(CC(=O)O)c3cccnc32)CC1 [Compound 54, 2-(3-(1-(3,5-dimethylisoxazol-4-ylsulfonyl)piperidin-4-yl)-2-oxo-2,3-dihydro-1H-imidazo[4,5-b]pyridin-1-yl)acetic acid]	> 30
Cc1ccc(CS(=O)(=O)N2CCC(n3c(=O)n(CC(=O)O)c4cccnc43)CC2)cc1 [Compound 56, 2-(3-(1-(4-methylbenzylsulfonyl)piperidin-4-yl)-2-oxo-2,3-dihydro-1H-imidazo[4,5-b]pyridin-1-yl)acetic acid]	10 to 30
O=C(O)Cn1c(=O)n(C2CCN(S(=O)(=O)c3ccc(Cl)cc3)CC2)c2ncccc21 [Compound 57, 2-(3-(1-(4-chlorophenylsulfonyl)piperidin-4-yl)-2-oxo-2,3-dihydro-1H-imidazo[4,5-b]pyridin-1-yl)acetic acid]	1 to 10
O=C(O)Cn1c(=O)n(C2CCN(S(=O)(=O)c3ccsc3)CC2)c2ncccc21 [Compound 60, 2-(2-oxo-3-(1-(thiophen-3-ylsulfonyl)piperidin-4-yl)-2,3-dihydro-1H-imidazo[4,5-b]pyridin-1-yl)acetic acid]	1 to 10
O=C(O)Cn1c(=O)n(C2CCN(S(=O)(=O)Cc3ccc(F)cc3)CC2)c2ncccc21 [Compound 64, 2-(3-(1-(4-fluorobenzylsulfonyl)piperidin-4-yl)-2-oxo-2,3-dihydro-1H-imidazo[4,5-b]pyridin-1-yl)acetic acid]	< 1
CC(C)(C)c1ccc(S(=O)(=O)N2CCC(n3c(=O)n(CC(=O)O)c4cccnc43)CC2)cc1 [Compound 65, 2-(3-(1-(4-tert-butylphenylsulfonyl)piperidin-4-yl)-2-oxo-2,3-dihydro-1H-imidazo[4,5-b]pyridin-1-yl)acetic acid]	1 to 10
CS(=O)(=O)c1cccc(S(=O)(=O)N2CCC(n3c(=O)n(CC(=O)O)c4cccnc43)CC2)c1 [Compound 66, 2-(3-(1-(3-(methylsulfonyl)phenyl-sulfonyl)piperidin-4-yl)-2-oxo-2,3-dihydro-1H-imidazo[4,5-b]pyridin-1-yl)acetic acid]	1 to 10
O=C(O)Cn1c(=O)n(C2CCN(S(=O)(=O)c3ccccc3[N+](=O)[O-])CC2)c2ncccc21 [Compound 67, 2-(3-(1-(2-nitrophenylsulfonyl)piperidin-4-yl)-2-oxo-2,3-dihydro-1H-imidazo[4,5-b]pyridin-1-yl)acetic acid]	< 1
O=C(O)Cn1c(=O)n(C2CCN(S(=O)(=O)c3cccnc3)CC2)c2ncccc21 [Compound 68, 2-(2-oxo-3-(1-(pyridin-3-ylsulfonyl)piperidin-4-yl)-2,3-dihydro-1H-imidazo[4,5-b]pyridin-1-yl)acetic acid]	10 to 30
N#Cc1ccccc1S(=O)(=O)N1CCC(n2c(=O)n(CC(=O)O)c3cccnc32)CC1 [Compound 70, 2-(3-(1-(2-cyanophenylsulfonyl)piperidin-4-yl)-2-oxo-2,3-dihydro-1H-imidazo[4,5-b]pyridin-1-yl)acetic acid]	< 1
O=C(O)Cn1c(=O)n(C2CCN(S(=O)(=O)c3ccc(Cl)cc3F)CC2)c2ncc(F)cc21 [Compound 71, 2-(3-(1-(4-chloro-2-fluorophenyl-sulfonyl)piperidin-4-yl)-6-fluoro-2-oxo-2,3-dihydro-1H-imidazo[4,5-b]pyridin-1-yl)acetic acid]	1 to 10
O=C(O)Cn1c(=O)n(C2CCN(S(=O)(=O)c3cccc4cccnc34)CC2)c2ncc(F)cc21 [Compound 72, 2-(6-fluoro-2-oxo-3-(1-(quinolin-8-ylsulfonyl)piperidin-4-yl)-2,3-dihydro-1H-imidazo[4,5-b]pyridin-1-yl)acetic acid]	1 to 10
CS(=O)(=O)c1ccccc1S(=O)(=O)N1CCC(n2c(=O)n(CC(=O)O)c3cc(F)cnc32)CC1 [Compound 74, 2-(6-fluoro-3-(1-(2-(methylsulfonyl)phenylsulfonyl)piperidin-4-yl)-2-oxo-2,3-dihydro-1H-imidazo[4,5-b]pyridin-1-yl)acetic acid]	< 1
O=C(O)Cn1c(=O)n(C2CCN(S(=O)(=O)c3ccc(Oc4ccccc4)cc3)CC2)c2ncccc21 [Compound 77, 2-(2-oxo-3-(1-(4-phenoxyphenyl-sulfonyl)piperidin-4-yl)-2,3-dihydro-1H-imidazo[4,5-b]pyridin-1-yl)acetic acid]	1 to 10
